Data taken from patent publication US10405547B2, “Substituted cyclic amides as herbicides” (FMC Corporation, priority 2015, dated 2019).

Assays:
Format in all cases: in vivo
[1] = tested on: ragweed (common ragweed, Ambrosia elatior); experiment: Test A postemergence, ragweed; conditions: visual injury, 0 to 100 scale (0 no effect, 100 complete control), approximately 10 days
How it was run: (§1)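 Injury scores (0 no effect, 100 complete control) were assigned by visually comparing treated with untreated plants after about 10 days of greenhouse growth. Seeds for soil treatment were sown into a loam and sand blend, while plants for foliar treatment grew in pots of that same blend.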

[2] = tested on: corn (Zea mays); experiment: Test A postemergence, corn; conditions: visual injury, 0 to 100 scale (0 no effect, 100 complete control), approximately 10 days
How it was run: as §1

[3] = tested on: ryegrass, Italian (Lolium multiflorum); experiment: Test A postemergence, Italian ryegrass; conditions: visual injury, 0 to 100 scale (0 no effect, 100 complete control), approximately 10 days
How it was run: as §1

[4] = tested on: wheat (Triticum aestivum); experiment: Test A postemergence, wheat; conditions: visual injury, 0 to 100 scale (0 no effect, 100 complete control), approximately 10 days
How it was run: as §1

[5] = tested on: barnyardgrass (Echinochloa crus-galli); experiment: Test A preemergence, barnyardgrass; conditions: 0 to 100 scale (0 no effect, 100 complete control)
How it was run: as §1

[6] = tested on: kochia (Kochia scoparia); experiment: Test A preemergence, kochia; conditions: 0 to 100 scale (0 no effect, 100 complete control)
How it was run: as §1

[7] = tested on: rice (Oryza sativa); experiment: Test B flooded paddy test, rice; conditions: 250 g ai/ha, applied to paddy water, visual rating after 13 to 15 days, scale 0 (no effect) to 100 (complete control)
How it was run: (§2)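 Test compounds are applied straight into paddy water held 3 cm above the soil surface, with that flood maintained for the whole test. After 13 to 15 days in the greenhouse, each species is scored visually relative to controls.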

[8] = tested on: pigweed (Amaranthus retroflexus); experiment: Test A preemergence, pigweed; conditions: 0 to 100 scale (0 no effect, 100 complete control)
How it was run: as §1

[9] = tested on: blackgrass (Alopecurus myosuroides); experiment: Test A postemergence, blackgrass; conditions: visual injury, 0 to 100 scale (0 no effect, 100 complete control), approximately 10 days
How it was run: as §1

[10] = tested on: foxtail, giant (Setaria faberii); experiment: Test A postemergence, giant foxtail; conditions: visual injury, 0 to 100 scale (0 no effect, 100 complete control), approximately 10 days
How it was run: as §1

[11] = tested on: galium (catchweed bedstraw, Galium aparine); experiment: Test A postemergence, galium; conditions: visual injury, 0 to 100 scale (0 no effect, 100 complete control), approximately 10 days
How it was run: as §1

[12] = tested on: kochia (Kochia scoparia); experiment: Test A postemergence, kochia; conditions: visual injury, 0 to 100 scale (0 no effect, 100 complete control), approximately 10 days
How it was run: as §1

[13] = tested on: barnyardgrass (Echinochloa crus-galli); experiment: Test A postemergence, barnyardgrass; conditions: visual injury, 0 to 100 scale (0 no effect, 100 complete control), approximately 10 days
How it was run: as §1

[14] = tested on: foxtail, giant (Setaria faberii); experiment: Test A preemergence, giant foxtail; conditions: 0 to 100 scale (0 no effect, 100 complete control)
How it was run: as §1

[15] = tested on: ragweed (common ragweed, Ambrosia elatior); experiment: Test A preemergence, ragweed; conditions: 0 to 100 scale (0 no effect, 100 complete control)
How it was run: as §1

[16] = tested on: ryegrass, Italian (Lolium multiflorum); experiment: Test A preemergence, Italian ryegrass; conditions: 0 to 100 scale (0 no effect, 100 complete control)
How it was run: as §1

[17] = tested on: ducksalad (Heteranthera limosa); experiment: Test B flooded paddy test, ducksalad; conditions: 250 g ai/ha, applied to paddy water, visual rating after 13 to 15 days, scale 0 (no effect) to 100 (complete control)
How it was run: as §2

[18] = tested on: pigweed (Amaranthus retroflexus); experiment: Test A postemergence, pigweed; conditions: visual injury, 0 to 100 scale (0 no effect, 100 complete control), approximately 10 days
How it was run: as §1

[19] = tested on: barnyardgrass (Echinochloa crus-galli); experiment: Test B flooded paddy test, barnyardgrass; conditions: 250 g ai/ha, applied to paddy water, visual rating after 13 to 15 days, scale 0 (no effect) to 100 (complete control)
How it was run: as §2

[20] = tested on: sedge, umbrella (small-flower umbrella sedge, Cyperus difformis); experiment: Test B flooded paddy test, umbrella sedge; conditions: 250 g ai/ha, applied to paddy water, visual rating after 13 to 15 days, scale 0 (no effect) to 100 (complete control)
How it was run: as §2

Row | SMILES | Plant response rating, Ragweed ([1]; 125 g ai/ha) | Plant response rating, Ragweed ([1]; 500 g ai/ha) | Plant response rating, Corn ([2]; 125 g ai/ha) | Plant response rating, Corn ([2]; 500 g ai/ha) | Plant response rating, Ryegrass, Italian ([3]; 125 g ai/ha) | Plant response rating, Ryegrass, Italian ([3]; 500 g ai/ha) | Plant response rating, Wheat ([4]; 125 g ai/ha) | Plant response rating, Wheat ([4]; 500 g ai/ha) | Plant response rating, Barnyardgrass ([5]; 125 g ai/ha) | Plant response rating, Barnyardgrass ([5]; 500 g ai/ha) | Plant response rating, Kochia ([6]; 125 g ai/ha) | Plant response rating, Kochia ([6]; 500 g ai/ha) | Plant response rating, Rice (Flood) [7] | Plant response rating, Pigweed ([8]; 125 g ai/ha) | Plant response rating, Pigweed ([8]; 500 g ai/ha) | Plant response rating, Blackgrass ([9]; 125 g ai/ha) | Plant response rating, Blackgrass ([9]; 500 g ai/ha) | Plant response rating, Foxtail, Giant ([10]; 125 g ai/ha) | Plant response rating, Foxtail, Giant ([10]; 500 g ai/ha) | Plant response rating, Galium ([11]; 125 g ai/ha) | further results
1 | CC1(COc2cccc(C3CNC(=O)C3C(=O)Nc3ccccc3C(F)(F)F)c2)COC1 (stereo not drawn) [Compound 15] | 0 | 30 | 0 | 0 | 0 | 0 | 0 | 0 | 0 | 60 | 0 | 0 | 0 | 0 | 0 | 0 | 0 | 10 | 20 | 0 | Plant response rating, Galium ([11]; 500 g ai/ha): 0; Plant response rating, Kochia ([12]; 125 g ai/ha): 0; Plant response rating, Kochia ([12]; 500 g ai/ha): 0; Plant response rating, Barnyardgrass ([13]; 125 g ai/ha): 0; Plant response rating, Barnyardgrass ([13]; 500 g ai/ha): 0; Plant response rating, Foxtail, Giant ([14]; 125 g ai/ha): 10; Plant response rating, Foxtail, Giant ([14]; 500 g ai/ha): 40; Plant response rating, Ragweed ([15]; 125 g ai/ha): 0; Plant response rating, Ragweed ([15]; 500 g ai/ha): 0; Plant response rating, Ryegrass, Italian ([16]; 125 g ai/ha): 0; Plant response rating, Ryegrass, Italian ([16]; 500 g ai/ha): 0; Plant response rating, Ducksalad (Flood) [17]: 50; Plant response rating, Pigweed ([18]; 125 g ai/ha): 0; Plant response rating, Pigweed ([18]; 500 g ai/ha): 0; Plant response rating, Barnyardgrass (Flood) [19]: 0; Plant response rating, Sedge, Umbrella (Flood) [20]: 0
2 | CC1(COc2cccc(C3CNC(=O)C3C(=O)Nc3ccccc3Cl)c2)COC1 (stereo not drawn) [Compound 16] | 0 | 0 | 0 | 0 | 0 | 0 | 0 | 0 | 0 | 60 | 0 | 0 | 0 | 0 | 0 | 0 | 0 | 0 | 20 | 0 | Plant response rating, Galium ([11]; 500 g ai/ha): 0; Plant response rating, Kochia ([12]; 125 g ai/ha): 0; Plant response rating, Kochia ([12]; 500 g ai/ha): 0; Plant response rating, Barnyardgrass ([13]; 125 g ai/ha): 0; Plant response rating, Barnyardgrass ([13]; 500 g ai/ha): 50; Plant response rating, Foxtail, Giant ([14]; 125 g ai/ha): 10; Plant response rating, Foxtail, Giant ([14]; 500 g ai/ha): 70; Plant response rating, Ragweed ([15]; 125 g ai/ha): 0; Plant response rating, Ragweed ([15]; 500 g ai/ha): 0; Plant response rating, Ryegrass, Italian ([16]; 125 g ai/ha): 0; Plant response rating, Ryegrass, Italian ([16]; 500 g ai/ha): 0; Plant response rating, Ducksalad (Flood) [17]: 30; Plant response rating, Pigweed ([18]; 125 g ai/ha): 0; Plant response rating, Pigweed ([18]; 500 g ai/ha): 0; Plant response rating, Barnyardgrass (Flood) [19]: 0; Plant response rating, Sedge, Umbrella (Flood) [20]: 30
